# Source: patent US10647680B2, “Urea compound, preparation method therefor and medical use thereof” (Ancureall Pharmaceutical (Shanghai) Co., Ltd., priority 2016, dated 2020)
# How the values were obtained:
# Format in all cases: cell-based
# [1] = tested on: A431 (EGFR WT, amplification and high expression); assay: In vitro growth inhibition (GI50), A431; settings: Homo sapiens, A-431
# From the text: (§1) Tumor cell line is an effective cell model for studying the inhibition of tumor cell growth or proliferation in vitro. In the present invention, a representative tumor cell line was selected to determine the cell growth inhibition activity of the present compound. All cell lines used were from ATCC, DSMZ, and the Cell Bank of the Chinese Academy of Sciences. Cell culture conditions and methods were in accordance with the requirements of each cell line. Cells were subcultured in vitro for no more than 3 passages each time, and as required, single-clone purification and identification of cell lines could be carried out.
# (§2) The cell culture media used were RPMI1640 (Gibco), MEM (Gibco), McCOY'S5A (Gibco), and IMDM (Gibco). The complete medium was prepared by supplement with 5˜20% fetal calf serum (Gibco), 1% double-antibiotics (10000 units/mL penicillin and 10000 units/mL), 2 mM glutamine or 1 mM sodium pyruvate, respectively.
# Human epidermal cancer cell line A431 (EGFR WT, amplification and high expression, from Shanghai Cell Bank of Chinese Academy of Sciences and ATCC), human lung cancer cell line NCI-H292 (EGFR WT, purchased from Shanghai Cell Bank of Chinese Academy of Sciences), NSCLC cell lines PC-9 and HCC827 (EGFR exon19 E746-A750 deletion, two cell lines are sensitive to the first-generation EGFR PTK inhibitor), NSCLC cell line NCI-H1975 (EGFR L858R/T790M and the first-generation EGFR inhibitor resistance, ATCC) were cultured with 1×RPMI1640 complete medium (supplement with 10% FBS), respectively.
# (§3) Adherent cells were digested with 0.25% pancreatin-EDTA (Gibco). The suspension cells were collected by centrifugation. The supernatant was discarded and the cell pellet was resuspended and counted. Different cell concentrations (5˜10×10^4 cells/mL) were prepared according to the growth cycle of each cell line and then seeded on a 96-well plate (Corning), 100 μL/well. The cells were incubated overnight at 37° C., 5% CO2. The compounds were added to the cells on the second day with 2 wells in parallel. The final concentration of organic solvent shall not exceed 1%. The cells were continually incubated for 3 to 5 days, and then subjected to MTT assay.
# (§4) The compound of the present invention and the control compound were dissolved in DMSO (Sigma) respectively, with the purity of more than 98%. The compound was stored in a concentration of 10 mM at −20° C. and diluted to 2- or 10-fold series prior to use.
# (§5) Dojindo CCK8 reagent kit was used as MTT assay. THERMO […] FC meter was used as microplate reader.
# (§6) For adherent cells, culture medium was removed and immediately replaced with the fresh prepared medium which contains 10% CCK8 reagent (100 μL/well). For the suspension cells, CCK8 was directly added to 10% of the final concentration. The cells were continually incubated for 1˜4 h. When a dark yellow color could be observed in the solvent control wells, the absorbance value at OD450 nm was measured and the cell growth rate was calculated according to the following formula: Cell Growth Rate (%)=100*(T−T0)/(C−T0) T=optical density of drug treatment cell well—optical density of blank control well; T0=optical density of cell well before drug treatment—optical density of blank control well; C=optical density of cell well of solvent control group—optical density of blank control well. The concentration value of 50% inhibition of cell growth (GI50) was calculated according to the drug concentration and cell growth rate curve. The experiment was independently repeated 1˜3 times, and subject to biological statistical analysis. 4. Experimental Results
# Tumor cell growth inhibition test was performed by selecting representative compounds (compounds 4, 11, 12, 16, 27, 68, 71, 77, 79, 89 and 116 of the present invention). The initial concentration of the compound was 5,000 nM, then it was serially diluted by 2-fold or 10-fold to 0.01 nM. The GI50 value of each test compound was calculated according to the GI50 assay and calculation method. […]
# MKN-45 (c-MET amp) = assay: In vitro growth inhibition (GI50), MKN-45; settings: Homo sapiens; MKN-45, cMET Amp+
# From the text: as §1, §2
# The human gastric cancer cell line MKN-45 (c-MET amp, ATCC) and the non-small cell lung cancer cell line NCI-H1993 (c-MET amp, ATCC) were cultured in complete medium comprising 1×RPMI1640 and 10% FBS, respectively.
# as §3, §4, §5, §6
# (§7) Tumor cell growth inhibition test was performed by selecting representative compounds (compounds 4, 11, 12, 16, 27, 68, 71, 77, 79, 89 and 116 of the present invention). The initial concentration of the compound was 5,000 nM, then it was serially diluted by 2-fold or 10-fold to 0.01 nM. The GI50 value of each test compound was calculated according to the GI50 assay and calculation method. The experiments were repeated 1 to 3 times, and data were subjected to biological statistical analysis.
# [2] = tested on: Karpas-299 (expressing NPM-ALK fusion gene); assay: In vitro growth inhibition (GI50), Karpas-299; settings: Homo sapiens; Karpas-299, NPM-ALK
# From the text: as §1, §2
# Human non-small cell lung cancer cell line NCI-H2228 (expressing EML4-ALK fusion gene, ATCC) and human anaplastic large cell lymphoma cell line Karpas-299 (expressing NPM-ALK fusion gene, ATCC) were cultured in complete medium comprising 1×RPMI1640 (10% FBS), respectively. Neuroblastoma cell line SH-SY5Y (expressing ALK F1174L mutant protein, Shanghai Cell Bank, Chinese Academy of Sciences) was cultured in MEM complete medium (1×MEM, 10% FBS, 1% NEAA, 1 mM sodium pyruvate).
# as §3, §4, §5, §6, §7
# [3] = tested on: H1299 (NRAS Q61K mutant type); assay: In vitro growth inhibition (GI50), H1299; settings: Homo sapiens, NCI-H1299
# From the text: as §1, §2
# Human large cell lung cancer cell NCI-H460 (KRAS […] mutant type, ATCC), human non-small cell lung cancer cell line H1299 (NRAS Q61K mutant type, ATCC), human melanoma cell line A375 (BRAF V600E mutant type, Shanghai Cell Bank of Chinese Academy of Sciences), human colon cancer cell line HCT116 (KRAS G13D mutant type, Shanghai Cell Bank, Chinese Academy of Sciences) were cultured in a complete medium of 1×RPMI1640 (10% FBS), respectively. Human non-small cell lung cancer cells A549 (KRAS G12S mutant type, Shanghai Cell Bank, Chinese Academy of Sciences) were cultured in a complete medium of 1× Ham's supplemented with 10% FBS, 1% double antibody, and 2 mM glutamine.
# as §3, §4, §5, §6
# Tumor cell growth inhibition test was performed by selecting representative compounds (compounds 4, 11, 12, 16, 27, 68, 71, 77, 79, 89 and 116 of the present invention). The initial concentration of the compound was 5,000 nM, then it was serially diluted by 2-fold or 10-fold to 0.01 nM. […]
SMILES,GI50 [1] [nM],GI50 (MKN-45 (c-MET amp)) [nM],GI50 [2] [nM],GI50 [3] [nM]
"CC(C)(C)c1cc(N)n(C(=O)Nc2ccc(-n3cnc4ccccc43)cc2)n1 [Compound 116, 5-amino-3-tert-butyl-pyrazol-1-carboxylic acid (4-benzimidazol-1-yl-phenyl)-amide]",> 2500,> 2500,> 2500,> 2500
"COCCOc1ccc2c(c1)ncn2-c1ccc(NC(=O)Nc2cc(C(C)(C)C)n[nH]2)cc1 [Compound 77, 1-(5-tert-butyl-2H-pyrazol-3-yl)-3-{4-[5-(2-methoxyl-ethoxyl)-benzimidazol-1-yl]-phenyl}-urea]",> 2500,> 2500,> 2500,> 2500
"COc1ccc2c(c1)ncn2-c1ccc(NC(=O)Nc2cc(C(C)(C)C)n[nH]2)cc1 [Compound 71, 1-(5-tert-butyl-2H-pyrazol-3-yl)-3-[4-(5-methoxyl-benzimidazol-1-yl)-phenyl]-urea]",> 2500,> 2500,> 2500,> 2500
"CC(C)(C)c1cc(NC(=O)Nc2ccc(-n3cnc4ccccc43)cc2)[nH]n1 [Compound 68, 1-(4-benzimidazol-1-yl-phenyl)-3-(5-tert-butyl-2H-pyrazol-3-yl)-urea]",> 2500,> 2500,1880,> 2500

# The remaining lines, values ahead:
GI50 [1] [nM],GI50 (MKN-45 (c-MET amp)) [nM],GI50 [2] [nM],GI50 [3] [nM],SMILES
> 2500,> 2500,> 2500,> 2500,"CC(C)(C)c1cc(NC(=O)Nc2ccc(-n3cnc4cc(OCCN5CCOCC5)ccc43)cc2)no1 [Compound 16, 1-(5-tert-butyl-isoxazol-3-yl)-3-{4-[5-(2-morpholin-4-yl-ethoxyl)-benzimidazol-1-yl]-phenyl}-urea]"
2000,> 2500,> 2500,> 2500,"CC(C)(C)c1cc(NC(=O)Nc2ccc(-n3cnc4cc(OCCO)ccc43)cc2)[nH]n1 [Compound 79, 1-(5-tert-butyl-2H-pyrazol-3-yl)-3-{4-[5-(2-hydroxy-ethoxyl)-benzimidazol-1-yl]-phenyl]urea]"
> 2500,> 2500,> 2500,> 2500,"CC(C)(C)c1cc(NC(=O)Nc2ccc(-n3cnc4cc(OCCN5CCOCC5)ccc43)cc2)[nH]n1 [Compound 89, 1-(5-tert-butyl-2H-pyrazol-3-yl)-3-{4-[5-(2-morpholin-4-yl-ethoxyl)-benzimidazol-1-yl]-phenyl}-urea]"
> 2500,> 2500,–,> 2500,"CC(C)(C)c1cc(NC(=O)Nc2ccc(-n3cnc4ccc(OCCN5CCOCC5)cc43)cc2)no1 [Compound 27, 1-(5-tert-butyl-isoxazol-3-yl)-3-{4-[6-(2morpholin-4-yl-ethoxyl)-benzimidazol-1-yl]-phenyl}-urea]"
1890,> 2500,–,> 2500,"CC(C)(C)c1cc(NC(=O)Nc2ccc(-n3cnc4cc(O)ccc43)cc2)no1 [Compound 4, 1-(5-tert-butyl-isoxazol-3-yl)-3-[4-(5-hydroxy-benzimidazol-1-yl)-phenyl]-urea]"
1560,> 2500,–,> 2500,"CC(C)(C)c1cc(NC(=O)Nc2ccc(-n3cnc4cc(OCCO)ccc43)cc2)no1 [Compound 11, 1-(5-tert-butyl-isoxazol-3-yl)-3-{4-[5-(2-hydroxy-ethoxyl)-benzimidazol-1-yl]-phenyl]-urea]"
